Tested on: C666-1 cells
Test: C666-1 Cell Viability Assay (Resazurin cytotoxicity test)
Assay type: cell-based
Settings: Homo sapiens, C6661, EB virus-positive C666-1 cells, 72 hours treatment, 100-0.78 micromole/L, read-out: Inhibitory Rate
Protocol: In order to evaluate the inhibitory effect of the small molecular compound of the present disclosure on EBNA1 at the cellular level, a cytotoxicity test was performed.
As mentioned in the Background of the present disclosure, nasopharyngeal carcinoma is a kind of disease highly associated with latent infection of EB virus. EB virus in latent state only expresses limited proteins to maintain its genome replication, among which EBNA1 protein is an essential functional protein. Studies have confirmed that inhibition of EBNA1 can reduce the proliferation of the corresponding nasopharyngeal carcinoma cells or kill them. Therefore, EB virus-positive nasopharyngeal carcinoma tumor cells (C666-1 cells) are selected for test to verify the effect of the small molecular compound of the present disclosure.
During testing, 100 microliters of different cell lines were inoculated onto a transparent 96-well plate, and 5×10^3 cells were inoculated in each well for C666-1 cells. After the cells were cultured in an incubator under […] at 37° C. for 24 hours, 10 microliters of compound with a concentration ranging from 1 mmol/L to 7.8 micromol/L were added to each well (8 points, double dilution, the final concentration was 100-0.78 micromole/L), and treated in the incubator under carbon dioxide at 37° C. for 72 hours. Cell viability was assessed using the redox indicator Resazurin. After addition of 10 microliters of 600 micromole/liter Resazurin to each well and incubation at 37° C. for 3 hours. Using a Tecan microplate reader, the fluorescence signals were detected at an […]. A software was used to fit the inhibition curve and calculate half-maximal effect concentration (EC50). The selectivity of compound activity was assessed by comparing the EC50 values of EB virus-positive and EB virus-negative cell lines.

SMILES | EC50 [µM]
COC(=O)c1cccc(N2CC(Oc3ccc(COc4cccnc4)cc3)C2)c1-n1cccc1 [Example 1, methyl 3-(3-(4-((pyridin-3-yloxy)methyl)phenoxy)azetidin-1-yl)-2-(1H-pyrrol-1-yl) benzoate] | 1 to 10
O=C(Nc1ccc(OC2CN(c3cccc(C(=O)NO)c3-c3cccc(Cl)c3)C2)cc1)Nc1cccnc1 [Example 41b, 3′-chloro-N-hydroxy-6-(3-(4-(3-(pyridin-3-yl)ureido)phenoxy)azetidin-1-yl)-[1,1′-biphenyl]-2-carboxamide] | < 1
O=C(NO)c1cccc(N2CC(Oc3ccc(COc4cncnc4)cc3)C2)c1-n1cccc1 [Example 14b, N-hydroxy-3-(3-(4-((pyrimidin-5-yloxy)methyl)phenoxy)azetidin-1-yl)-2-(1H-pyrrol-1-yl) benzamide] | 1 to 10
CN(C(=O)Nc1cccc(C#N)c1)c1ccc(OC2CN(c3cccc(C(=O)O)c3-n3cccc3)C2)cc1 [Example 7a, 3-(3-(4-(3-(3-cyanophenyl)-1 - methylureido)phenoxy)azetidin-1-yl)-2-(1H-pyrrol-1-yl) benzoic acid] | 10 to 50
O=C(Nc1ccc(OC2CN(c3cccc(C(=O)O)c3-n3cccc3)C2)cc1)Nc1cncc(F)c1 [Example 46a, 3-(3-(4-(3-(5-fluoropyridin-3-yl)ureido)phenoxy)azetidin-1-yl)-2-(1H-pyrrol-1-yl) benzoic acid] | 1 to 10
O=C(Cc1cccnc1)Nc1ccc(OC2CN(c3cccc(C(=O)NO)c3-c3ccccc3)C2)cc1 [Example 45b, N-hydroxy-6-(3-(4-(2-(pyridine-3-yl)acetamido)phenoxy)azetidin-1-yl)-[1,1′-biphenyl]-2-carboxamide] | < 1
O=C(Cc1cccnc1)Nc1ccc(OC2CN(c3cccc(C(=O)O)c3-c3ccccc3)C2)cc1F [Example 54a, 6-(3-(3-fluoro-4-(2-(pyridin-3-yl)acetamido)phenoxy)azetidin-1-yl)-[1,1′-biphenyl]-2-carboxylic acid] | 1 to 10
O=C(O)c1cccc(N2CC(Oc3ccc(Cn4ccnc4)cc3)C2)c1-n1cccc1 [Example 56a, 3-(3-(4-((1H-imidazol-1-yl)methyl)phenoxy)azetidin-1-yl)-2-(1H-pyrrol-1-yl) benzoic acid] | 10 to 50
O=C(NO)c1cccc(N2CC(Oc3ccc(COCc4cccnc4)cc3)C2)c1-n1cccc1 [Example 27b, N-Hydroxy-3-(3-(4-((pyridin-3-ylmethoxy)methyl)phenoxy)azetidin-1-yl)-2-(1H-pyrrol-1-yl)benzamide] | < 1
COC(=O)c1cccc(C#Cc2ccc(CC(=O)Nc3cccnc3)cc2)c1-c1ccc2cc[nH]c2c1 [Example 61, methyl 2-(1H-indol-6-yl)-3-((4-(2-oxo-2-(pyridin-3-ylamino)ethyl)phenyl)ethynyl) benzoate] | < 1
O=C(Nc1ccc(OC2CN(c3cccc(C(=O)O)c3-n3cccc3)C2)cc1)c1cccnc1 [Example 31a, 3-(3-(4-(nicotinoamido)phenoxy)azetidin-1-yl)-2-(1H-pyrrol-1-yl) benzoic acid] | 10 to 50
COC(=O)c1cccc(N2CC(Oc3ccc(/C=C/c4cccnc4)cc3)C2)c1-c1ccccc1 [Example 36, methyl (E)-6-(3-(4-(2-(pyridin-3-yl)vinyl)phenoxy)azetidin-1-yl)-[1,1′-biphenyl]-2-carboxylate] | 10 to 50
COC(=O)c1cccc(N2CC(Oc3ccc(COc4ccccn4)cc3)C2)c1-n1cccc1 [Example 12, methyl 3-(3-(4-((pyridin-2-yloxy)methyl)phenoxy)azetidin-1-yl)-2-(1H-pyrrol-1-yl) benzoate] | > 50
O=C(O)c1cccc(N2CC(Oc3ccc(CNc4cccnc4)cc3)C2)c1-c1cccc(Cl)c1 [Example 38a, 3′-chloro-6-(3-(4-((pyridin-3-ylamino)methyl)phenoxy)azetidin-1-yl)-[1,1′-biphenyl]-2-carboxylic acid] | 10 to 50
COC(=O)c1cccc(N2CC(Oc3ccc(COc4ccn(C)n4)cc3)C2)c1-n1cccc1 [Example 32, methyl 3-(3-(4-(((1-methyl-1H-pyrazol-3-yl)oxy)methyl)phenoxy)azetidin-1-yl)-2-(1H-pyrrol-1-yl) benzoate] | > 50
O=C(Nc1ccc(OC2CN(c3cccc(C(=O)NO)c3-n3cccc3)C2)cc1)c1cccnc1 [Example 31b, N-(4-((1-(3-(hydroxycarbamoyl)-2-(1H-pyrrol-1-yl)phenyl)azetidin-3-yl)oxy)phenyl) nicotinamide] | < 1
O=C(Cc1cccnc1)Nc1ccc(OC2CN(c3ccccc3-c3ccccc3)C2)cc1 [Example 45e, N-(4-((1-([1,1′-biphenyl]-2-yl)azetidin-3-yl)oxy)phenyl)-2-(pyridin-3-yl)acetamide] | 10 to 50
O=C(Cc1ccc(OC2CN(c3cccc(C(=O)O)c3-n3cccc3)C2)cc1)Nc1ccccc1 [Example 35a, 3-(3-(4-(2-oxo-2-(phenylamino)ethyl)phenoxy)azetidin-1-yl)-2-(1H-pyrrol-1-yl) benzoic acid] | > 50
COc1ccc(OCc2ccc(OC3CN(c4cccc(C(=O)O)c4-n4cccc4)C3)cc2)cn1 [Example 4a, 3-(3-(4-(((6-methoxypyridin-3-yl)oxy)methyl)phenoxy)azetidin-1-yl)-2-(1H-pyrrol-1-yl) benzoic acid] | > 50
COC(=O)c1cccc(N2CC(Oc3ccc(NC(=O)Nc4cccnc4)cc3)C2)c1-c1cccc(Cl)c1 [Example 41, methyl 3′-chloro-6-(3-(4-(3-(pyridin-3-yl)ureido)phenoxy)azetidin-1-yl)-[1,1′-biphenyl]-2-carboxylate] | < 1
O=C(Nc1ccc(C#Cc2cccc(C(=O)O)c2-c2ccc3cc[nH]c3c2)cc1)Nc1cccnc1 [Example 59a, 2-(1H-indol-6-yl)-3-((4-(3-(pyridin-3-yl)ureido)phenyl)ethynyl) benzoic acid] | < 1
CONC(=O)c1cccc(N2CC(Oc3ccc(NC(=O)Cc4cccnc4)cc3)C2)c1-c1ccccc1 [Example 45d, N-methoxy-6-(3-(4-(2-(pyridin-3-yl)acetamido)phenoxy)azetidin-1-yl)-[1,1′-biphenyl]-2-carboxamide] | 10 to 50
O=C(O)c1cccc(N2CC(Oc3ccc(COc4cccnc4)c(Cl)c3)C2)c1-n1cccc1 [Example 19a, 3-(3-(3-chloro-4-((pyridin-3-yloxy)methyl)phenoxy)azetidin-1-yl)-2-(1H-pyrrol-1-yl) benzoic acid] | 10 to 50
COC(=O)c1cccc(N2CC(Oc3ccc(COc4cccnc4)cc3)C2)c1-c1cccc(Cl)c1 [Example 18, methyl 3′-chloro-6-(3-(4-((pyridin-3-yloxy)methyl)phenoxy)azetidin-1-yl)-[1,1′-biphenyl]-2-carboxylate] | 1 to 10
O=C(Nc1ccc(C#Cc2cccc(C(=O)NO)c2-c2ccccc2)cc1)Nc1cccnc1 [Example 58b, N-hydroxy-6-((4-(3-(pyridin-3-yl)ureido)phenyl)ethynyl)-[1,1′-biphenyl]-2-carboxamide] | < 1
COC(=O)c1cccc(N2CC(Oc3ccc(NC(=O)Cc4cccnc4)cc3)C2)c1-n1cccc1 [Example 51, methyl 3-(3-(4-(2-(pyridin-3-yl)acetamido)phenoxy)azetidin-1-yl)-2-(1H-pyrrol-1-yl) benzoate] | < 1

— patent US20240308987A1, “SMALL MOLECULE INHIBITOR AGAINST NASOPHARYNGEAL CARCINOMA, PREPARATION METHOD AND APPLICATION THEREOF” (SHENZHEN BAY LABORATORY, priority 2021, published 2024)
